# Data as given in patent US20150087613A1, “Inhibition of Opioid Antinociceptive Tolerance and Withdrawal in Nociceptive Pain Therapy” (Saint Louis University, priority 2013, published 2015).
# Key:
# [1] = Solubility in EtOH on preparing the dosing solution; settings: 5 mg dissolved in 5 ml EtOH
# [2] = tested on: Male Sprague Dawley rats; test: Rat morphine antinociceptive tolerance study (osmotic minipump, tail flick test); assay type: in vivo
# Text: Minipumps were filled according to manufacturer's specifications. The use of the osmotic pump ensures a continuous subcutaneously delivery of morphine avoiding intermittent periods of withdrawal. […] The integrity of the pump delivery system was reexamined at the end of each experiment when the spinal cords are harvested.
# (§1) Test substances or vehicle were given on day 0 through 6 after completion of the behavioral tests.
# [3] = tested on: Male Sprague Dawley rats; test: Acute antinociceptive interaction with acute morphine (tail flick); assay type: in vivo, rat; settings: IB-MECA 0.3 mg/kg i.p. 15 min before morphine 3 mg/kg i.p.
# Text: as §1
# [4] = tested on: Male Balb/c mice; test: Naloxone-precipitated withdrawal in morphine dependent mice; assay type: in vivo, mouse; settings: IB-MECA 0.1 mg/kg with three day morphine regimen
# Protocol: Male Balb/c mice (19-26 g) were purchased from University of Adelaide Laboratory Animal Services (Waite Campus, Adelaidem South Australia) and housed 6 per individually ventilated cage (IVC) and maintained in controlled environment (12 h light/dark cycle) with food and water available ad libitum.
# A group of control mice (n=7 per strain) received an equal number of saline injections over 3 days.
# EtOH was maintained at 0.02% final drug preparation. Vehicle was 0.02% EtOH in normal saline.
# Immediately after the naloxone injection, animals were placed into individual Plexiglas observation cylinders (25 h×11 w cm) (Nalgene, Scoresby, VIC, Australia). Withdrawal jumping response symptoms were recorded and the frequency of jumps for each mouse was summed over 30 min. Other characteristic opioid withdrawal behaviors were also recorded such as front paw shakes and hunched/prayer postures. All testing was conducted blind to group assignment.
smiles,measurement,setting,value
"CNC(=O)[C@H]1O[C@@H](n2cnc3c(NCc4cccc(I)c4)ncnc32)[C@H](O)[C@@H]1O [IB-MECA, N^6-(3-iodobenzyl)-adenosine-5′-N-methyluronamide]",solubility in EtOH,[1],soluble
same,development of morphine-induced antinociceptive tolerance,"[2]; IB-MECA i.p. daily during 7 day s.c. morphine infusion, tail flick 30 min after acute morphine, day 3 and 6, n=2",blocked the development of morphine-induced antinociceptive tolerance
same,effect on baseline tail flick latency,[2]; given alone daily over 6 days to rats that received saline infusion,had no effect on baseline tail flick latency
same,potentiation of antinociceptive responses to acute morphine,[3],did not potentiate the antinociceptive responses to acute morphine
same,antinociception after acute morphine with IB-MECA pretreatment,[3]; at 30 min,35+5 % antinociception
same,less naloxone-precipitated jumping vs morphine dependent mice receiving vehicle,[4]; 95% CI 1 to 17,9 jumps/30 min
same,less episodes of hunched/prayer posture vs morphine dependent mice receiving vehicle,"[4]; 95% CI 3 to 7, 30 minute observation",5 episodes
same,less bouts of front paw shakes vs morphine dependent mice receiving vehicle,[4]; 95% CI 5 to 15,10 bouts of front paw shakes/30 min
